Experimental data reported in publication PMC4076210, “Discovery of Novel AKT Inhibitors with Enhanced Anti-Tumor Effects in Combination with the MEK Inhibitor” (PLoS ONE, 2014).
Read-outs that look alike come from different tables or passages of the source.

Columns and labels:
Type in all cases: biochemical
Bmx(h) = target: T1, Bmx(h) (Homo sapiens, UniProt P51813); experiment: Kinase panel
T1 construct: purchased Millipore KinaseProfiler
T1 sequence (P51813 1-675): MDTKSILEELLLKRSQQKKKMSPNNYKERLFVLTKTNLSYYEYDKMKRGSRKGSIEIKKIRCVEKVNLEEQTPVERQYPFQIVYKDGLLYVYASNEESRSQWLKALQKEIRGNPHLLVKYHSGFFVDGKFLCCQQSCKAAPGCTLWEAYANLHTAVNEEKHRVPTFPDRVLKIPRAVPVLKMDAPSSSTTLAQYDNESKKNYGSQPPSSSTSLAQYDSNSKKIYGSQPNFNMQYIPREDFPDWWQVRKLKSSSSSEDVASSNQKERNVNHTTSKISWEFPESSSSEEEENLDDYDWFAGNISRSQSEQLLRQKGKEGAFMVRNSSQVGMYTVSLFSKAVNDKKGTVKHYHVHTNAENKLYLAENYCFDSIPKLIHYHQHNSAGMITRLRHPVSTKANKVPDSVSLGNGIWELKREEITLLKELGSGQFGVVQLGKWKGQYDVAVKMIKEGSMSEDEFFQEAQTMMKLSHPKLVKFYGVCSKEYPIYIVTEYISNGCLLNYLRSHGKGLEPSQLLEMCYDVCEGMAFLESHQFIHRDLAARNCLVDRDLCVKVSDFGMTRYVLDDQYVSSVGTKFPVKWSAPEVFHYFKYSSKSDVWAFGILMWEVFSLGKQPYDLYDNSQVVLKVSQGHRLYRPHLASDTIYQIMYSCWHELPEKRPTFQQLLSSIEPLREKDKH

CaMKIIδ(h) = target: T2, CaMKIIδ(h) (Homo sapiens, UniProt Q13557); experiment: Kinase panel
T2 construct: purchased Millipore KinaseProfiler

GSK3β(h) = target: T3, GSK3β(h) (Homo sapiens, UniProt P49841); experiment: Kinase panel
T3 construct: purchased Millipore KinaseProfiler

IRAK1(h) = target: T4, IRAK1(h) (Homo sapiens, UniProt P51617); experiment: Kinase panel
T4 construct: purchased Millipore KinaseProfiler
T4 sequence (P51617 whole entry): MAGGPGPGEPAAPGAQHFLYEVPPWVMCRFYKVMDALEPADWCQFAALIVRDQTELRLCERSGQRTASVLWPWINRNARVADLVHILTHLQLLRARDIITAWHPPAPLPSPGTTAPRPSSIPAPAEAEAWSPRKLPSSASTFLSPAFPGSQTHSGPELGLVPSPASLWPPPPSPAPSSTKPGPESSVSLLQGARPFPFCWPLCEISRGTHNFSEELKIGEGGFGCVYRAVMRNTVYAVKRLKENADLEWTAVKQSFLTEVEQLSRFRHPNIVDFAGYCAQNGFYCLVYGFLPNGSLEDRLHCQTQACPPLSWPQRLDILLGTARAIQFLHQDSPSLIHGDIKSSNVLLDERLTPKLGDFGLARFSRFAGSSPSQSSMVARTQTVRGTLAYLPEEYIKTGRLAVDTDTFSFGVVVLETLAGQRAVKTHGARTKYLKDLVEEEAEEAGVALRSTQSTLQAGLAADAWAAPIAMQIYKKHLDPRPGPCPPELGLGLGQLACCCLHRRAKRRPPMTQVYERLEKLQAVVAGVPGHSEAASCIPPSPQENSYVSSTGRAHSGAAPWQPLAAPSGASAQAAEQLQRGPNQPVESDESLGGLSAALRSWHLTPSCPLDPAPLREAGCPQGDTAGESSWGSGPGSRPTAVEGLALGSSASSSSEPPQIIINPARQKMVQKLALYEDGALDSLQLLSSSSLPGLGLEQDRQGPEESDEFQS

LIMK1(h) = target: T5, LIMK1(h) (Homo sapiens, UniProt P53667); experiment: Kinase panel
T5 construct: purchased Millipore KinaseProfiler

MAPK2(h) = target: T6, MAPK2(h) (Homo sapiens, UniProt P28482); experiment: Kinase panel
T6 construct: purchased Millipore KinaseProfiler

Mnk2(h) = target: T7, Mnk2(h) (Homo sapiens, UniProt Q9HBH9); experiment: Kinase panel
T7 construct: purchased Millipore KinaseProfiler
T7 sequence (Q9HBH9 whole entry): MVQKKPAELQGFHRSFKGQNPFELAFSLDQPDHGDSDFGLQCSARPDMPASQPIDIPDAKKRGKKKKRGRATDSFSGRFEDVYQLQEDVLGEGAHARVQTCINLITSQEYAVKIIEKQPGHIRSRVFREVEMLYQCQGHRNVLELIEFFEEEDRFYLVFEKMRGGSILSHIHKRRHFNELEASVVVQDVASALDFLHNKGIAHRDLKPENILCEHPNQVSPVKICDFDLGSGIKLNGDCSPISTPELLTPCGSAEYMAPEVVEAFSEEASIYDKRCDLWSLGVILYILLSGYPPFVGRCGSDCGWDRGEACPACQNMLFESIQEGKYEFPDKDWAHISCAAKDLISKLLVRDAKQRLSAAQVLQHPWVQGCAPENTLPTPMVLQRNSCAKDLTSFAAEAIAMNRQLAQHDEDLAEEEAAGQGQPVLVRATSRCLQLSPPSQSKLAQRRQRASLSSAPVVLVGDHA

MST3(h) = target: T8, MST3(h) (Homo sapiens, UniProt Q9Y6E0); experiment: Kinase panel
T8 construct: purchased Millipore KinaseProfiler
T8 sequence (Q9Y6E0 whole entry): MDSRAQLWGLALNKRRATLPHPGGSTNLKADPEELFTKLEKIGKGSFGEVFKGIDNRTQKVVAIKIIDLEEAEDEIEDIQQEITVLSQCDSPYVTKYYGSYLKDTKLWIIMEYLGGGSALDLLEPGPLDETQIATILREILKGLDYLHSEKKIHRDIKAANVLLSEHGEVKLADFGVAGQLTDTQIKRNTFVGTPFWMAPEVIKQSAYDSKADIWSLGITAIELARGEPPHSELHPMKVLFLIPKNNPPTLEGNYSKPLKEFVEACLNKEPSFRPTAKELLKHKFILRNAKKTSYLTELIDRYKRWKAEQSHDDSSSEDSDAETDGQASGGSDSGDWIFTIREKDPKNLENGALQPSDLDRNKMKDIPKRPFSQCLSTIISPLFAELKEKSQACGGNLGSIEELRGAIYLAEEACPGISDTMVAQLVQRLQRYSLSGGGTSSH

PDGFRα(D842V)(h) = target: T9, PDGFRα(D842V)(h) (Homo sapiens, UniProt P16234, D842V); experiment: Kinase panel
T9 construct: purchased Millipore KinaseProfiler
T9 sequence (P16234 24-1089 D842V): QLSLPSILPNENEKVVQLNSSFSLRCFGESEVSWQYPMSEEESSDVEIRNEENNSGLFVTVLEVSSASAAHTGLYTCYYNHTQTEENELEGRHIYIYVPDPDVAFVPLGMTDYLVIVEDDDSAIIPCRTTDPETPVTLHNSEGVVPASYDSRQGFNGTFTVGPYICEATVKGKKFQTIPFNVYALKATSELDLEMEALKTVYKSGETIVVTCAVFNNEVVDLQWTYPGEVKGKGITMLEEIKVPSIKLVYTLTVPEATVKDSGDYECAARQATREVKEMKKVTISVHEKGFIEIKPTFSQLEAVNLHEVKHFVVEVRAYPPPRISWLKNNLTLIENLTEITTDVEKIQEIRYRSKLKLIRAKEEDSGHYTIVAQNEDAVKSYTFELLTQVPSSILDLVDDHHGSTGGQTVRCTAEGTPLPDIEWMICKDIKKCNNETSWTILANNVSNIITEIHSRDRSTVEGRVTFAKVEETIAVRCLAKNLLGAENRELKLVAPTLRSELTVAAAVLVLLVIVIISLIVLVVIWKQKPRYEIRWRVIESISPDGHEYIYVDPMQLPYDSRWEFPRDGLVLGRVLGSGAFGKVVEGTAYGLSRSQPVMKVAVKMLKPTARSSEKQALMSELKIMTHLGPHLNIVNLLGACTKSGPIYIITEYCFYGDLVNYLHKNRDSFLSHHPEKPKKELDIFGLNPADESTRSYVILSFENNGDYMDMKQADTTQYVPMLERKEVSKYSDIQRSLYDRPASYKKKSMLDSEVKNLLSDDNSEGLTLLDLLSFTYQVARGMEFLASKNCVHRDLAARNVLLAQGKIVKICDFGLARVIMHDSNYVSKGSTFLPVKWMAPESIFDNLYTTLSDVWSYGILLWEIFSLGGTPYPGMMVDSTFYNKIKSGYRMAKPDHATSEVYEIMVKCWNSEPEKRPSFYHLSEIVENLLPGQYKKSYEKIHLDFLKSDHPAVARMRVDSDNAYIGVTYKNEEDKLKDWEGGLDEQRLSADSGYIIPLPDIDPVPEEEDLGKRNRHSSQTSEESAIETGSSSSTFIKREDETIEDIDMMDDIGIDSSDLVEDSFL

PDGFRα(h) = target: T10, PDGFRα(h) (Homo sapiens, UniProt P16234); experiment: Kinase panel
T10 construct: purchased Millipore KinaseProfiler
T10 sequence (P16234 24-1089): as the sequence (P16234 24-1089 D842V) above, with V819D counted along it

PKG1α(h) = target: T11, PKG1α(h) (Homo sapiens, UniProt Q13976); experiment: Kinase panel
T11 construct: purchased Millipore KinaseProfiler
T11 sequence (Q13976 1-671): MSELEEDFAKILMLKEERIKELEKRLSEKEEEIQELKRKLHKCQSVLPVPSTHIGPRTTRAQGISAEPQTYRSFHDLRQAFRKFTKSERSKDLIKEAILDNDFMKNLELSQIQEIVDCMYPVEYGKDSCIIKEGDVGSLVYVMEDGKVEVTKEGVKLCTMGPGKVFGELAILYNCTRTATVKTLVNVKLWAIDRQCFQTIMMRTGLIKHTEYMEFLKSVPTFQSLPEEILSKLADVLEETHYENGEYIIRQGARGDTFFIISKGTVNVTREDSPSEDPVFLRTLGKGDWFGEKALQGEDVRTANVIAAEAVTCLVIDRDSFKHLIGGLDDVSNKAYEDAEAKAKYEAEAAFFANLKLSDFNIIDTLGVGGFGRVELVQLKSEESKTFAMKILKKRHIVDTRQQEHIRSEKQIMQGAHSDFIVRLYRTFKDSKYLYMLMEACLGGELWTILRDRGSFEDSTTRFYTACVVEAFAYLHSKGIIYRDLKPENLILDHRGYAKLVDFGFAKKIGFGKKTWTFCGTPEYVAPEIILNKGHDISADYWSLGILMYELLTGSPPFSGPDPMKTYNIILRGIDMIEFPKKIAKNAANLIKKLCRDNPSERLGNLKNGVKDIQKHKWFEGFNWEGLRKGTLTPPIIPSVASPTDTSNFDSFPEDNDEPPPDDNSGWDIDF

Rsk1(r) = target: T12, Rsk1(r) (Rattus norvegicus, UniProt Q63531); experiment: Kinase panel
T12 construct: purchased Millipore KinaseProfiler
T12 sequence (Q63531 whole entry): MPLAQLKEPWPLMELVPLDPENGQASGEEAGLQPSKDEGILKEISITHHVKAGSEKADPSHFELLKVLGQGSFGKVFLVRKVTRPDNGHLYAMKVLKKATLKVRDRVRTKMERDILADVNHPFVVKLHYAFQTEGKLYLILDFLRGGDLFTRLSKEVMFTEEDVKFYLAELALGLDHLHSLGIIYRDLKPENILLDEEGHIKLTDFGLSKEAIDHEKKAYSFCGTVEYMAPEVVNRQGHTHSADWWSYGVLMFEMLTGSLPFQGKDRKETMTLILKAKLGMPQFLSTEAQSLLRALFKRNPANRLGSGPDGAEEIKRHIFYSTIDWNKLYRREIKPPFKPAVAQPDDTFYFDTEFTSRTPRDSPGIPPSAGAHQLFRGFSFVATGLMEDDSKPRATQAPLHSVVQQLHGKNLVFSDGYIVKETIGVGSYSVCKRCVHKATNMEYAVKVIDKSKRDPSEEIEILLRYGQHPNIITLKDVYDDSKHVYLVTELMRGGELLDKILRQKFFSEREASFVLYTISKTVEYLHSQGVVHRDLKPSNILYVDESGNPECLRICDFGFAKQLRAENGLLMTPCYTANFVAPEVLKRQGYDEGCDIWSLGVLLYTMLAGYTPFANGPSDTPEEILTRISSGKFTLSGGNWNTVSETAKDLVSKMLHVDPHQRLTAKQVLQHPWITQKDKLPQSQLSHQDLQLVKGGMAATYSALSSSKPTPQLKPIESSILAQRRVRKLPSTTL

Rsk3(h) = target: T13, Rsk3(h) (Homo sapiens, UniProt Q15349); experiment: Kinase panel
T13 construct: purchased Millipore KinaseProfiler

Tie2(h) = target: T14, Tie2(h) (Homo sapiens, UniProt Q02763); experiment: Kinase panel
T14 construct: purchased Millipore KinaseProfiler
T14 sequence (Q02763 23-1124): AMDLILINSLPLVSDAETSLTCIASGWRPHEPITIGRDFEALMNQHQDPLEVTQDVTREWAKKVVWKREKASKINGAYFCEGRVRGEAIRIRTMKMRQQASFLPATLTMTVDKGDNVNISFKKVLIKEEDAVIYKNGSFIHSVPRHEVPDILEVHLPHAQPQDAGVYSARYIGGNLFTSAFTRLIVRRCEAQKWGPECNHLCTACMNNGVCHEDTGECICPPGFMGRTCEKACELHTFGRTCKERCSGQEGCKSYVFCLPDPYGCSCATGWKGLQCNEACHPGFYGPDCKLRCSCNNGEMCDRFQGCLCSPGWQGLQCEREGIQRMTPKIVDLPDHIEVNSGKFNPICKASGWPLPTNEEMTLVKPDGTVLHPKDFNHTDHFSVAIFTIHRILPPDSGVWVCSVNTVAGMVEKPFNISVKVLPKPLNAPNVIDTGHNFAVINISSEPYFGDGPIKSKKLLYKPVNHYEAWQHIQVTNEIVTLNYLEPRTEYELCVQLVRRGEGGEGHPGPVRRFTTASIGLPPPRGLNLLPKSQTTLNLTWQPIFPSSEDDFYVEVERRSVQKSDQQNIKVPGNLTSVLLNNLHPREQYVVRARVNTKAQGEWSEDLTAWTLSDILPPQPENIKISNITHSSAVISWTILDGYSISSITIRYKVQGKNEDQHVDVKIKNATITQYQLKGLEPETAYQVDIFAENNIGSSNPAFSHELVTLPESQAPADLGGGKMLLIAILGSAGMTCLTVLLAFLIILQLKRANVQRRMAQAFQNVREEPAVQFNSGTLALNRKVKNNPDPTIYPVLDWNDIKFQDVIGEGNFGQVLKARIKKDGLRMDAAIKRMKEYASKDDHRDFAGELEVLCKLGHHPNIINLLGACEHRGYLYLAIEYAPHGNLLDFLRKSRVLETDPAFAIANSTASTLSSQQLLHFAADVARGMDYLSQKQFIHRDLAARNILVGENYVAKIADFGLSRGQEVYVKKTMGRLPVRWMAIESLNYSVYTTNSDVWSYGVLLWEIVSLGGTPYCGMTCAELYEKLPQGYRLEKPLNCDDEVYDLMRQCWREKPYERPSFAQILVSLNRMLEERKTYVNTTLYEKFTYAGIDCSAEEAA

ZIPK(h) = target: T15, ZIPK(h) (Homo sapiens, UniProt O43293); experiment: Kinase panel
T15 construct: purchased Millipore KinaseProfiler
T15 sequence (O43293 whole entry): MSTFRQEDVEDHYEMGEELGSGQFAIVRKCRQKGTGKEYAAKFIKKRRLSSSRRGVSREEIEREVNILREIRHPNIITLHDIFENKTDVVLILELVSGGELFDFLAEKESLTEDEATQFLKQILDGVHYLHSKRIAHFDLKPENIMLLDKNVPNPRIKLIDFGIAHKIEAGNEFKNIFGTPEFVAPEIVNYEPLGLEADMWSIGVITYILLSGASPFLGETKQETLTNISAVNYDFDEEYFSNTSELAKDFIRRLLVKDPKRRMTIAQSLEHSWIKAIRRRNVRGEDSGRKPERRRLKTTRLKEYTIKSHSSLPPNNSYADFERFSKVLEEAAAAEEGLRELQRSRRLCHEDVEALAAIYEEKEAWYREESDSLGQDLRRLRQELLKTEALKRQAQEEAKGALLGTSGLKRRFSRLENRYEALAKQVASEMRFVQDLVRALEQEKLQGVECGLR

PKG1β = PKG1β (Homo sapiens, UniProt Q13976); experiment: Kinase IC50 assay

## Cn1ncc(Cl)c1-c1cc(C(=O)N[C@H](CN)Cc2cccc(F)c2)sc1Cl [GSK2110183]
Bmx(h)
  inhibition at 0.5 µM: -2%
  inhibition at 10 µM: 18%
CaMKIIδ(h)
  inhibition at 0.5 µM: -20%
  inhibition at 10 µM: 12%
GSK3β(h)
  inhibition at 0.5 µM: 4%
  inhibition at 10 µM: 5%
IRAK1(h)
  inhibition at 0.5 µM: -5%
  inhibition at 10 µM: 3%
LIMK1(h)
  inhibition at 0.5 µM: 21%
  inhibition at 10 µM: 25%
MAPK2(h)
  inhibition at 0.5 µM: -2%
  inhibition at 10 µM: 17%
Mnk2(h)
  inhibition at 0.5 µM: 22%
  inhibition at 10 µM: 84%
MST3(h)
  inhibition at 0.5 µM: 14%
  inhibition at 10 µM: 50%
PDGFRα(D842V)(h)
  inhibition at 0.5 µM: -16%
  inhibition at 10 µM: -4%
PDGFRα(h)
  inhibition at 0.5 µM: -2%
  inhibition at 10 µM: -2%
PKG1α(h)
  inhibition at 0.5 µM: 99%
  inhibition at 10 µM: 99%
Rsk1(r)
  inhibition at 0.5 µM: 24%
  inhibition at 10 µM: 89%
Rsk3(h)
  inhibition at 0.5 µM: 35%
  inhibition at 10 µM: 89%
Tie2(h)
  inhibition at 0.5 µM: -56%
  inhibition at 10 µM: -10%
ZIPK(h)
  inhibition at 0.5 µM: 0%
  inhibition at 10 µM: 62%
PKG1β
  IC50: 4 nM

## Cn1ncc(Cl)c1-c1cc(C(=O)N[C@H](CN)Cc2ccc(F)c(F)c2)oc1Cl [GSK2141795]
Bmx(h); 0.5 µM, read-out: % Inhibition
  inhibition at 0.5 µM: -6%
Bmx(h); 10 µM, read-out: % Inhibition
  inhibition at 10 µM: 21%
CaMKIIδ(h); 0.5 µM, read-out: % Inhibition
  inhibition at 0.5 µM: 53%
CaMKIIδ(h); 10 µM, read-out: % Inhibition
  inhibition at 10 µM: 94%
GSK3β(h); 0.5 µM, read-out: % Inhibition
  inhibition at 0.5 µM: -8%
GSK3β(h); 10 µM, read-out: % Inhibition
  inhibition at 10 µM: -13%
IRAK1(h); 0.5 µM, read-out: % Inhibition
  inhibition at 0.5 µM: -19%
IRAK1(h); 10 µM, read-out: % Inhibition
  inhibition at 10 µM: -4%
LIMK1(h); 0.5 µM, read-out: % Inhibition
  inhibition at 0.5 µM: 3%
LIMK1(h); 10 µM, read-out: % Inhibition
  inhibition at 10 µM: 18%
MAPK2(h); 0.5 µM, read-out: % Inhibition
  inhibition at 0.5 µM: 11%
MAPK2(h); 10 µM, read-out: % Inhibition
  inhibition at 10 µM: 49%
Mnk2(h); 0.5 µM, read-out: % Inhibition
  inhibition at 0.5 µM: 9%
Mnk2(h); 10 µM, read-out: % Inhibition
  inhibition at 10 µM: 80%
MST3(h); 0.5 µM, read-out: % Inhibition
  inhibition at 0.5 µM: 10%
MST3(h); 10 µM, read-out: % Inhibition
  inhibition at 10 µM: 63%
PDGFRα(D842V)(h); 0.5 µM, read-out: % Inhibition
  inhibition at 0.5 µM: -5%
PDGFRα(D842V)(h); 10 µM, read-out: % Inhibition
  inhibition at 10 µM: 15%
PDGFRα(h); 0.5 µM, read-out: % Inhibition
  inhibition at 0.5 µM: -4%
PDGFRα(h); 10 µM, read-out: % Inhibition
  inhibition at 10 µM: -4%
PKG1α(h); 0.5 µM, read-out: % Inhibition
  inhibition at 0.5 µM: 100%
PKG1α(h); 10 µM, read-out: % Inhibition
  inhibition at 10 µM: 99%
Rsk1(r); 0.5 µM, read-out: % Inhibition
  inhibition at 0.5 µM: 57%
Rsk1(r); 10 µM, read-out: % Inhibition
  inhibition at 10 µM: 95%
Rsk3(h); 0.5 µM, read-out: % Inhibition
  inhibition at 0.5 µM: 51%
Rsk3(h); 10 µM, read-out: % Inhibition
  inhibition at 10 µM: 94%
Tie2(h); 0.5 µM, read-out: % Inhibition
  inhibition at 0.5 µM: -6%
Tie2(h); 10 µM, read-out: % Inhibition
  inhibition at 10 µM: 9%
ZIPK(h); 0.5 µM, read-out: % Inhibition
  inhibition at 0.5 µM: 19%
ZIPK(h); 10 µM, read-out: % Inhibition
  inhibition at 10 µM: 78%
PKG1β
  IC50: < 1 nM
